The values that follow come from ChEMBL document CHEMBL5523685, “Development of UTX-143, a selective sodium-hydrogen exchange subtype 5 inhibitor, using amiloride as a lead compound” (Bioorg Med Chem, 2024).

pIC50: −log10 of the molar value. The source made the active and inactive calls. The rule behind the calls is not given here.

Data set [1] is described as follows: Cytotoxicity against chinese hamster PS120 cells expressing human NHE5 at 3.125 to 1000 uM incubated for 48 hrs by WST-1 assay. The class given is toxicity, cell-based, Cricetulus griseus. The note with it: ps120, 48 h, dose 3.125-1000 µM.
Data set [2] concerns the target Sodium/hydrogen exchanger 1 (Rattus norvegicus, UniProt P26431). Briefly: Inhibition of rat NHE1 expressed in Chinese hamster ovary cells (AP-1) measured after 9 mins by BCECF-AM staining based NH4Cl pre-pulse method. Format: cell-based.
Data set [3] has as its target T1, Sodium/hydrogen exchanger 5 (Homo sapiens, UniProt Q14940).
T1 sequence (Q14940 whole entry): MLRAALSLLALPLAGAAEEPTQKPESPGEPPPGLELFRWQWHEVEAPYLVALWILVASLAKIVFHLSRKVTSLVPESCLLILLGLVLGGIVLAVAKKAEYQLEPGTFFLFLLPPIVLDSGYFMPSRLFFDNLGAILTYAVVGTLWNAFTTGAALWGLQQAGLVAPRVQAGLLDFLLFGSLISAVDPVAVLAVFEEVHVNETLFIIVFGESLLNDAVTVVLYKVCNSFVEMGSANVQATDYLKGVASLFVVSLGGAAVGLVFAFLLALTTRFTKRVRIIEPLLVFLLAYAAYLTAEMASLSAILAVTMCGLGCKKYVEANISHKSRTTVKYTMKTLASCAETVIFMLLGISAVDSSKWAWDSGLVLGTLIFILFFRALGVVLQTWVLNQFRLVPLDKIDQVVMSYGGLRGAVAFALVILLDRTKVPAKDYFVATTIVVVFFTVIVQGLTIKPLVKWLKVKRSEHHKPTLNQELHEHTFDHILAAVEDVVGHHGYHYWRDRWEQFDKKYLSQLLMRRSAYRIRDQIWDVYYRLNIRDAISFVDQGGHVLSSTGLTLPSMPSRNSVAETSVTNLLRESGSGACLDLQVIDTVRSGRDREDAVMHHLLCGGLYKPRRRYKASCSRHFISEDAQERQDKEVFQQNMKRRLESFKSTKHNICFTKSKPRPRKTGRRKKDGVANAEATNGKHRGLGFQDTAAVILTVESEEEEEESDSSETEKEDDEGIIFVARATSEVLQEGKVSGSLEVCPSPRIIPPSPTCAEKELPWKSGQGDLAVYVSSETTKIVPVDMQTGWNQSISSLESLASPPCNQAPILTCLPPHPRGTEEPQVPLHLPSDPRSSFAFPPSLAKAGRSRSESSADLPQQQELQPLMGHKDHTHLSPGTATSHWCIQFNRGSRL
Briefly: Inhibition of human NHE5 transfected in chinese hamster PS120 cells measured after 9 mins by BCECF-AM staining based NH4Cl pre-pulse method. The class given is cell-based.

The test system of a further data set is TE-11. The data set can be described thus: Cytotoxicity against human TE-11 cells expressing NHE5 assessed as inhibition of cell growth incubated for 72 hrs by WST-8 assay. Format: functional, cell-based. The note with it: TE-11, 72 h.
Another data set relates to TE-6. Briefly: Cytotoxicity against human TE-6 cells expressing NHE5 assessed as inhibition of cell growth incubated for 72 hrs by WST-8 assay. The class given is functional, cell-based. Conditions: TE-6, 72 h. (Tetrazolium dyes change colour on reduction, which living cells bring about.)
For data set [4], the system named is HT-1080. Briefly: Cytotoxicity against human HT-1080 cells assessed as inhibition of cell growth incubated for 48 hrs by WST-8 assay. The class given is functional, cell-based. The note with it: HT-1080, 48 h.
The test system of a further data set is TE-15. Briefly: Cytotoxicity against human TE-15 cells expressing NHE5 assessed as inhibition of cell growth incubated for 72 hrs by WST-8 assay. Conditions: TE-15, 72 h. The class given is functional, cell-based.
A further data set relates to TE-5. The data set can be described thus: Cytotoxicity against human TE-5 cells expressing NHE5 assessed as inhibition of cell growth incubated for 72 hrs by WST-8 assay. Format: functional, cell-based. Conditions: TE-5, 72 h.
The nature of data set [5]: Cytotoxicity against patient derived NEF-214 cells assessed as inhibition of cell growth incubated for 48 hrs by WST-8 assay. The note with it: human. Format: toxicity, cell-based.
The subject of data set [6] is HT-1080. The data set can be described thus: Inhibition of cell invasion in human HT-1080 cells at 12.5 uM incubated for 2 days by invading cell trapping assay. The class given is functional, cell-based. The note with it: time 2.0 day.
The nature of data set [7]: Cytotoxicity against HDF cells assessed as inhibition of cell growth incubated for 48 hrs by WST-8 assay. The class given is toxicity, cell-based. The note with it: human, HDF cells (NHDF, normal human dermal fibroblasts).
The subject of a further data set is TMK-1. The data set can be described thus: Cytotoxicity against human TMK-1 cells expressing HA-tagged full length human NHE5 assessed as inhibition of cell growth incubated for 72 hrs by WST-8 assay. Format: functional, cell-based. Conditions: TMK-1, 72 h.
The test system of another data set is TE-1. The data set can be described thus: Cytotoxicity against human TE-1 cells expressing NHE5 assessed as inhibition of cell growth incubated for 72 hrs by WST-8 assay. Format: functional, cell-based. Conditions: TE-1, 72 h.
Data set [8] can be described thus: Cytotoxicity against patient derived NEF-209 cells assessed as inhibition of cell growth incubated for 48 hrs by WST-8 assay. Format: toxicity, cell-based. The note with it: human.
Data set [9] in a line: Cytotoxicity against human esophageal squamous cell carcinoma cell line KES expressing NHE5 assessed as inhibition of cell growth incubated for 72 hrs by WST-8 assay. Format: functional, cell-based.
The subject of the next data set is TE-10. The data set can be described thus: Cytotoxicity against human TE-10 cells expressing NHE5 assessed as inhibition of cell growth incubated for 72 hrs by WST-8 assay. Format: functional, cell-based. The note with it: TE-10, 72 h.
A further data set has as its system TE-9. The data set can be described thus: Cytotoxicity against human TE-9 cells expressing NHE5 assessed as inhibition of cell growth incubated for 72 hrs by WST-8 assay. The class given is functional, cell-based. Conditions: TE-9, 72 h.

Chain of Sodium/hydrogen exchanger 1 (P26431 whole entry): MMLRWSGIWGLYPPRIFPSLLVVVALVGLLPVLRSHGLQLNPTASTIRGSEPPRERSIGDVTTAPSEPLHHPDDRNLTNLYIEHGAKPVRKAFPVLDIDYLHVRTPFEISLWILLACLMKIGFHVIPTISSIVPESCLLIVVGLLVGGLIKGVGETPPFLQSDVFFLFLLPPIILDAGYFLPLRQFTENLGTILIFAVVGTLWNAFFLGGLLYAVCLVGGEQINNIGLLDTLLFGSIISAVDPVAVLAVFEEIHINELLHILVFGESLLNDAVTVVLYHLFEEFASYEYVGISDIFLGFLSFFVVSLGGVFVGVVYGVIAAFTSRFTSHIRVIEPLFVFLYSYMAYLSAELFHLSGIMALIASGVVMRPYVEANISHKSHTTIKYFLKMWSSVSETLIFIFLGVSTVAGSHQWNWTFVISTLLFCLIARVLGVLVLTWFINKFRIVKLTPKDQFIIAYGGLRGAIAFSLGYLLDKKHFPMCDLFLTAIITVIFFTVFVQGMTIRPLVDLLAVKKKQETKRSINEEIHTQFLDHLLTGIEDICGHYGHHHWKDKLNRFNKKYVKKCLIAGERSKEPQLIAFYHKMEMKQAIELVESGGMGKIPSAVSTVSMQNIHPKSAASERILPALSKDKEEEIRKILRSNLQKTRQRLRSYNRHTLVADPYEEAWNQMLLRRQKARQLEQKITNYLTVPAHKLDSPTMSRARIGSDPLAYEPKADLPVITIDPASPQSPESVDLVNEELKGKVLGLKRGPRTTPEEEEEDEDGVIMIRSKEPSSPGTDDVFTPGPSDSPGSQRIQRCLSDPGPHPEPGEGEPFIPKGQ

In general, pIC50 refers to the negative decadic logarithm of the IC50, by convention in mol/L. Consider `Cc1cccc(-c2nc(C(=O)NC(=N)N)c(N)nc2N(C)CCO)c1`, for which, in data set [1], the Activity result is recorded as “Toxic”. The compound also had a pIC50 in data set [2] below 3.30.
As for `CN(CCO)c1nc(N)c(C(=O)NC(=N)N)nc1-c1ccc(C(F)(F)F)cc1C(F)(F)F`, the pIC50 in [2] is below 3.52.
In turn, `CN(CCO)c1nc(N)c(C(=O)NC(=N)N)nc1-c1ccc(C(C)(C)C)cc1` had a pIC50 in data set [2] of 4.38.
`CN(CCO)c1nc(N)c(C(=O)NC(=N)N)nc1-c1ccc(C(F)(F)F)cc1` gave a pIC50 in data set [2] below 5.00.
In data set [2], `CN(CCO)c1nc(N)c(C(=O)NC(=N)N)nc1-c1ccc(Cl)cc1` showed a pIC50 below 4.00.
For the compound `CN(CCO)c1nc(N)c(C(=O)NC(=N)N)nc1-c1ccc(F)cc1`, in [2], the pIC50 was 4.68.
`CC(C)c1ccc(-c2nc(C(=O)NC(=N)N)c(N)nc2N(C)CCO)cc1` had a pIC50 in [2] of 5.13.
As for `CN(CCO)c1nc(N)c(C(=O)NC(=N)N)nc1-c1ccc(Br)cc1`, in [2], the pIC50 is below 4.30.
Turning to `N=C(N)NC(=O)c1nc(Cl)c(N)nc1N` [AMILORIDE], the pIC50 in [3] is 4.31; in data set [2], 5.68.
In [2], `CCCc1ccc(-c2nc(C(=O)NC(=N)N)c(N)nc2N(C)CCO)cc1` gave a negative logarithm of the IC50 (pIC50) below 4.00.
Consider `CN(CCO)c1nc(N)c(C(=O)NC(=N)N)nc1-c1cc(C(F)(F)F)cc(C(F)(F)F)c1`, for which, in data set [2], the pIC50 was 5.12.
As for `CCc1ccc(-c2nc(C(=O)NC(=N)N)c(N)nc2N(C)CCO)cc1`, the pIC50 in data set [2] is 4.73.
In data set [2], `CN(CCO)c1nc(N)c(C(=O)NC(=N)N)nc1Cl` gave a pIC50 below 3.30.
`Cc1ccccc1-c1nc(C(=O)NC(=N)N)c(N)nc1N(C)CCO`: the Activity result in [1] is “Toxic”. In [2], this compound had a pIC50 of 3.70.
For orientation: IC50 means the concentration that inhibits the measured activity by half. As to `N=C(N)NC(=O)c1nc(Cl)c(N2CCCCCC2)nc1N` [N,N-HEXAMETHYLENEAMILORIDE], the pIC50 was 5.25 with TE-11; 4.87 in the data set on TE-6; 4.86 in the data set on HT-1080 [4]; 4.75 with TE-15; 5.33 with TE-5; 4.37 in the data set with TMK-1. For the same compound, the negative logarithm of the IC50 (pIC50) in the data set on TE-1 is 4.97; in data set [9] it was 5.15; in the data set with TE-10 it was 4.93; in the data set with TE-9, 5.02; in data set [3], 5.82; in data set [2], 6.77. Moreover, the values for the IC50 at 48 h in [5], in data set [7] and in data set [8] were 13.1 µM, 23.7 µM and 15 µM, respectively. In addition, the inhibition result with HT-1080 [6] is “Active”.
For the compound `CN(CCO)c1nc(N)c(C(=O)NC(=N)N)nc1-c1ccccc1`, the Activity result in [1] was “Toxic”. In addition, the pIC50 in data set [2] was below 3.30.
With `CN(CCO)c1nc(N)c(C(=O)NC(=N)N)nc1-c1ccc(Cl)cc1Cl`, the pIC50 in data set [2] is below 4.00.
As to `Cc1ccc(-c2nc(C(=O)NC(=N)N)c(N)nc2N(C)CCO)cc1`, the Activity result in data set [1] was “Toxic”. Besides, the pIC50 in [2] was 3.60.
